Measured values taken from article PMC6272185 (Molecules, 2015).
Converted amounts (≈) assume the structure as drawn. Like-named read-outs stand apart in the source and are kept apart here.

Experiments:
[1] = test system: TNF-α production by LPS-stimulated RAW 264.7 macrophages; experiment: Inhibition of TNF-α production by LPS-stimulated macrophages (ELISA); assay type: cell-based, murine; conditions: for IC50: Mus musculus, read-out: IC50 TNF-α; for inhibition of TNF-α: LPS-stimulated RAW 264.7
[2] = Macrophage cytotoxicity, LDH release assay; assay type: cell-based, murine; conditions: mouse, RAW 264.7 macrophages stimulated with LPS; LPS-stimulated RAW 264.7, LDH release; mean ± SD, n = 3
RAW 264.7 macrophages = experiment: Macrophage cytotoxicity, LDH release assay; assay type: cell-based, murine; conditions: LDH release
[3] = test system: NO production by LPS-stimulated RAW 264.7 macrophages; experiment: Inhibition of NO production by LPS-stimulated macrophages (Griess); assay type: cell-based, murine; conditions: mean ± SD, n = 3
M. bovis BCG = experiment: microbe, parasite or virus in culture; assay type: cell-based, Mycobacterium bovis BCG; conditions: for MIC50 / MIC90: Mycobacterium tuberculosis variant bovis BCG, BCG, 168 h; for MIC50: read-out: MIC50 M. bovis BCG; for MIC90: read-out: MIC90 M. bovis BCG
M. tuberculosis H37Rv = experiment: microbe, parasite or virus in culture; assay type: cell-based, Mycobacterium tuberculosis; conditions: for MIC90 / MIC50: Mycobacterium tuberculosis
[4] = test system: IL-1β production by LPS-stimulated RAW 264.7 macrophages; experiment: Inhibition of IL-1β production by LPS-stimulated macrophages (ELISA); assay type: cell-based, murine; conditions: for IC50: Mus musculus, RAW264.7, 24 h, read-out: IC50 IL-1β; for inhibition of IL-1β: LPS-stimulated RAW 264.7
Procedure: (§1) Murine RAW 264.7 macrophage cell line (American Type Culture Collection, Manassas, VA, USA), was cultured in Dulbecco’s modified Eagle’s medium (DMEM-F12) supplemented with 10% Fetal Bovine Serum (FBS) and gentamicin (50 µg/mL) in 5% CO2 atmosphere at 37 °C. For experiments, the cells were seeded in 96-well plates (1 × 10^5 cells/well) and incubated for 24 h at 37 °C. For macrophage stimulation, the cell cultures were treated with LPS (1 µg/mL) and incubated for additional 24 h in the presence or absence of the chalcone samples (samples 1–41) that were used at concentrations of 100, 20, 4 and 0.8 µg/mL. In some experiments, a nitric oxide (NO) inhibitor, L-NMMA (20 μg/mL), was used as a positive control of NO inhibition, and a non-steroidal anti-inflammatory drug indomethacin, known to inhibit production of prostaglandins, was used as a positive control of PGE2 inhibition.
(§2) The frozen culture supernatants samples were thawed and immediately analyzed using commercially available enzyme-linked immunosorbent assay (ELISA) kits to measure TNF-α, IL-1β (BD Biosciences) and PGE2 (R&D Systems, Minneapolis, MN, USA), according to the manufacturer’s instructions. Standard curves for each mediator were generated using reference cytokine concentrations supplied by the manufacturer. Nitric oxide (NO) generation was assessed by the Griess method to measure nitrites, which are stable breakdown NO products.

[5] = test system: M. tuberculosis strain H37Rv in RAW 264.7 macrophages; experiment: Intracellular growth of M. tuberculosis H37Rv in infected macrophages (CFU); assay type: cell-based, Mycobacterium tuberculosis; conditions: infected RAW 264.7, MOI 1:1, 4 days, Figure 3C; for MIC50: Mycobacterium tuberculosis, H37RV, 96 h
Procedure: (§3) RAW 264.7 macrophages were plated (1 × 10^5 cells/well) in antibiotic-free DMEM-F12 medium supplemented with 10% fetal bovine serum and incubated for 24 h. Prior to infection, mycobacterial suspensions were sonicated for 1 minute to disperse clumps and optical densities were adjusted to 0.1. The macrophage cultures were infected at a MOI of 1:1 (macrophage: bacterium). Phagocytosis was allowed to progress for 3 h. After 3 h, extracellular mycobacteria were removed by washing with PBS 1X and the infected cell monolayers were treated for 4 days with chalcone samples or rifampicin. Macrophage viability was monitored by LDH assay and was over 80% in all experiments. On day 4 after infection, cells were lysed cells with 1% saponin to release intracellular bacteria. Lysate aliquots were diluted 10-fold in PBS, plated in triplicates on 7H10 agar plates and incubated at 37 °C. After 21 days, total CFU were determined.

[6] = test system: RAW 264.7 macrophages infected with M. tuberculosis H37Rv; experiment: Toxicity for infected macrophages, LDH assay; assay type: cell-based, murine; conditions: Mus musculus, RAW264.7, 96 h; infected RAW 264.7, 4 days treatment; Figure 3D
Procedure: Cytotoxic effects of chalcone samples on RAW 264.7 cell viability in cultures stimulated with LPS were determined using the LDH (lactate dehydrogenase) release assay as previously described. Cytoplasmic enzyme LDH release into cell culture supernatants was detected using a commercial LDH kit (Doles, GO, Brazil). Cell death was expressed as percentage of LDH release, which was calculated using the following formula: percentage of LDH release = 100 × (test LDH release − spontaneous release)/(maximum release − spontaneous release). The maximum release was determined following dissolution of cell monolayers using 1% (vol/vol) Triton X-100. The spontaneous release was determined in supernatants from cultures incubated in the presence of LPS and DMSO, used as a solvent for chalcone samples.
as §3

[7] = test system: iNOS expression in RAW 264.7 macrophages; experiment: iNOS expression by western blot in LPS-stimulated macrophages; assay type: cell-based, murine; conditions: 20 µg/mL, LPS 1 µg/mL, 24 h
Procedure: (§4) RAW 264.7 macrophages were plated in Petri dishes (2 × 10^7 cells·mL^−1) and incubated for 24 h at 37 °C in 5% CO2 atmosphere. […] The resulted cellular monolayers were washed with PBS 1×, scraped and resuspended in PBS 1×, transferred and centrifuged to obtain cell pellets. The cells were lysed in buffer (10% SDS, 20% glycerol, 5% 2-mercaptoethanol, 2% bromophenol blue and 1 M Tris HCl, pH 6.8, containing protease inhibitors). Protein concentrations were estimated by Bradford method. For western blot analysis, cellular extract samples (60 µg) were submitted to 10% SDS–polyacrylamide gel electrophoresis under […] conditions and transferred to nitrocellulose membranes (Amersham Pharmacia Biotech, Uppsala, Sweden). After blocking with PBS-T (0.5% Tween-20) containing 2.5% (w/v) bovine serum albumin, the membranes were incubated with antibodies against iNOS (1:1000) and COX-2 (1:500) for 1 h at room temperature. After incubation period, the membranes were washed followed by treatment with horseradish peroxidase-conjugated secondary antibody. The resulting membranes were developed using diaminobenzidine/H2O2 as a substrate for peroxidase. In all electrophoresis experiments, a protein standard ladder (Full Range Rainbow-GE Healthcare, Piscataway, NJ, USA) was used to estimate proteins molecular size. Protein bands densitometric analysis was performed using ImageJ software for Windows (NIH, Bethesda, MD, USA). The value for stimulated condition (LPS- treated cells) was set as 1 and other conditions were recalculated correspondingly to allow ratio comparisons.

[8] = test system: PGE2 production by LPS-stimulated RAW 264.7 macrophages; experiment: Inhibition of PGE2 production by LPS-stimulated macrophages (ELISA); assay type: cell-based, murine; conditions: Mus musculus, RAW264.7, 24 h, read-out: IC50 PGE2
Procedure: as §1, §2

[9] = test system: COX-2 expression in RAW 264.7 macrophages; experiment: COX-2 expression by western blot in LPS-stimulated macrophages; assay type: cell-based, murine; conditions: 20 µg/mL, LPS 1 µg/mL, 24 h
Procedure: as §4

M. tuberculosis M299 = experiment: microbe, parasite or virus in culture; assay type: cell-based, Mycobacterium tuberculosis; conditions: Mycobacterium tuberculosis, M299, 120 h
[10] = RAW264.7, LPS (1 µg/mL)-stimulated RAW 264.7, 24 h, mean ± SD, n = 3
[11] = Mus musculus, RAW264.7, 24 h, LPS (1 µg/mL)-stimulated RAW 264.7, 24 h, read-out: IC50 NO
[12] = H37RV, 120 h, read-out: MIC50 M. tuberculosis H37Rv
[13] = Table 5, same values as M. tuberculosis H37Rv in Table 3, read-out: MIC50
[14] = LPS (1 µg/mL)-stimulated RAW 264.7, 24 h, read-out: IC50 NO
[15] = Mus musculus, RAW264.7, 24 h, read-out: IC50 NO, LPS (1 µg/mL)-stimulated RAW 264.7, 24 h

SMILES	IC50 [1, 10]	IC50 [2]	cytotoxicity profile (RAW 264.7 macrophages)	IC50 [3, 11]	MIC50 (M. bovis BCG)	MIC90 (M. bovis BCG)	MIC90 (M. tuberculosis H37Rv; H37RV, 120 h)	MIC50 (M. tuberculosis H37Rv; [12])	MIC50 (M. tuberculosis H37Rv; [13])	IC50 [4]	MIC50 [5]	IC50 [6]	inhibition of iNOS expression [7]	IC50 [8]	other results
COc1ccc(C(=O)/C=C/c2ccccc2Cl)cc1 [Chalcone 30]	> 367 µM	100 ± 5.1 µM	worst cytotoxicity profiles	23.9 ± 4.8 µM	37.8 ± 6.4 µM (≈ 10.3 µg/mL)	329 ± 3.6 µM (≈ 89.6 µg/mL)									
O=C(/C=C/c1ccc(Cl)cc1)c1ccccc1Cl [Chalcone 33]	166 ± 5.2 µM	351 ± 5 µM			45.7 ± 5.4 µM (≈ 12.7 µg/mL)	> 361 µM	356 ± 4.9 µM (≈ 98.6 µg/mL)	36.9 ± 4.5 µM (≈ 10.2 µg/mL)	36.9 ± 4.5 µM (≈ 10.2 µg/mL)	287 ± 3.6 µM	248 ± 3.7 µM (≈ 68.7 µg/mL)	271.7 ± 2.7 µM	almost completely inhibit	75.1 ± 3.5 µM	
O=C(/C=C/c1ccccc1)c1ccccc1Cl [Chalcone 31]		267 ± 4.5 µM			90.9 ± 5.5 µM (≈ 22.1 µg/mL)	330 ± 4.2 µM (≈ 80.1 µg/mL)				> 412 µM			almost completely inhibit	10.2 ± 0.5 µM	IC50 ([1]; RAW264.7, 24 h): > 412 µM; abrogation of COX-2 expression [9]: most potent in abrogation
CN(C)c1ccc(/C=C/C(=O)c2ccccc2)cc1 [Chalcone 4]	66.9 ± 4.3 µM	348 ± 5.1 µM			14.3 ± 5.8 µM (≈ 3.59 µg/mL)	137 ± 7.9 µM (≈ 34.5 µg/mL)	320 ± 4.8 µM (≈ 80.5 µg/mL)	19.7 ± 1.9 µM (≈ 4.95 µg/mL)	19.7 ± 1.9 µM (≈ 4.95 µg/mL)	116 ± 5.5 µM	4.2 ± 0.3 µM (≈ 1.06 µg/mL)	374 ± 6.3 µM	almost completely inhibit	61.2 ± 0.5 µM	inhibition of TNF-α [1]: strongly inhibit; MIC50 (M. tuberculosis M299): 20.1 ± 1 µM (≈ 5.05 µg/mL); MIC90 (M. tuberculosis M299): 351.5 ± 1.8 µM (≈ 88.3 µg/mL); IC50 [3, 14]: 12 ± 2.2 µM; IC50 [3, 15]: < 21 µM; inhibition of IL-1β [4]: potent inhibitors; MIC50 intracellular M. tuberculosis H37Rv [5]: 4.2 ± 0.3 µM (≈ 1.06 µg/mL)
O=C(/C=C/c1ccc2c(c1)OCO2)c1ccccc1 [Chalcone 5]	48.1 ± 7.6 µM	> 396 µM			14.5 ± 6.1 µM (≈ 3.66 µg/mL)	75.3 ± 8.4 µM (≈ 19 µg/mL)	303 ± 5.4 µM (≈ 76.5 µg/mL)	12.7 ± 1.9 µM (≈ 3.2 µg/mL)	12.7 ± 1.9 µM (≈ 3.2 µg/mL)	57.9 ± 4.9 µM	3.8 ± 0.1 µM (≈ 0.959 µg/mL)	> 396 µM	almost completely inhibit	23.1 ± 2.4 µM	inhibition of TNF-α [1]: strongly inhibit; MIC50 (M. tuberculosis M299): 11.7 ± 3.4 µM (≈ 2.95 µg/mL); MIC90 (M. tuberculosis M299): 289.6 ± 0.7 µM (≈ 73.1 µg/mL); MIC90 M. tuberculosis H37Rv (M. tuberculosis H37Rv): 303.2 ± 5.4 µM (≈ 76.5 µg/mL); abrogation of COX-2 expression [9]: most potent in abrogation; inhibition of IL-1β [4]: potent inhibitors; MIC50 intracellular M. tuberculosis H37Rv [5]: 3.8 ± 0.1 µM (≈ 0.959 µg/mL); MIC90 M. bovis BCG (M. bovis BCG; culture, 7 days, MTT): 75.3 ± 8.4 µM (≈ 19 µg/mL)
CN(C)c1ccc(/C=C/C(=O)c2ccc(Br)cc2)cc1 [Chalcone 11]	> 303 µM	132 ± 2.9 µM	worst cytotoxicity profiles	41.3 ± 3.5 µM	67.8 ± 3.8 µM (≈ 22.4 µg/mL)	242 ± 2.6 µM (≈ 79.9 µg/mL)									
COc1ccc(/C=C/C(=O)c2ccc(OC)cc2)cc1 [Chalcone 29]	> 373 µM	93.9 ± 4.9 µM	worst cytotoxicity profiles		32.5 ± 5.4 µM (≈ 8.72 µg/mL)	339.5 ± 3.2 µM (≈ 91.1 µg/mL)									IC50 [3, 14]: 13.1 ± 4.2 µM; IC50 [3, 15]: < 21 µM
O=C(/C=C/c1ccc(Cl)cc1)c1ccc(Br)cc1 [Chalcone 10]	> 311 µM	113.4 ± 0.5 µM	worst cytotoxicity profiles	68.9 ± 4.3 µM	22.3 ± 6.3 µM (≈ 7.17 µg/mL)	288 ± 3.2 µM (≈ 92.6 µg/mL)									
